Test results published in patent US9284300B2, “Pyridazinone derivatives” (Merck Patent GmbH, priority 2007, dated 2016).

Molecular target: T1, Met kinase (Homo sapiens, UniProt P08581)
Assay: Flashplate method (Met kinase)
Assay type: biochemical
Parameters: 6His (N); purchased Upstate 14-526; host or cells: Sf21 insect cells (S. frugiperda), baculovirus
Conditions: Met kinase inhibition, enzyme assay
Protocol: The test plates used are 96-well Flashplate^R microtitre plates from Perkin Elmer (Cat. No. SMP200).
The full value used is the inhibitor-free kinase reaction. This should be approximately in the range 6000-9000 cpm. The pharmacological zero value used is staurosporin in a final concentration of 0.1 mM. The inhibitory values (IC50) are determined using the RS1_MTS program.
Kinase reaction conditions per well: • 30 μl of assay buffer • 10 μl of substance to be tested in assay buffer with 10% of DMSO • 10 μl of ATP (final concentration 1 μM cold, 0.35 μCi of ^33P-ATP) • 50 μl of Met kinase/substrate mixture in assay buffer; (10 ng of enzyme/well, 50 ng of pAGLT/well)
Target sequence in this assay (P08581 974-1390 limits assumed): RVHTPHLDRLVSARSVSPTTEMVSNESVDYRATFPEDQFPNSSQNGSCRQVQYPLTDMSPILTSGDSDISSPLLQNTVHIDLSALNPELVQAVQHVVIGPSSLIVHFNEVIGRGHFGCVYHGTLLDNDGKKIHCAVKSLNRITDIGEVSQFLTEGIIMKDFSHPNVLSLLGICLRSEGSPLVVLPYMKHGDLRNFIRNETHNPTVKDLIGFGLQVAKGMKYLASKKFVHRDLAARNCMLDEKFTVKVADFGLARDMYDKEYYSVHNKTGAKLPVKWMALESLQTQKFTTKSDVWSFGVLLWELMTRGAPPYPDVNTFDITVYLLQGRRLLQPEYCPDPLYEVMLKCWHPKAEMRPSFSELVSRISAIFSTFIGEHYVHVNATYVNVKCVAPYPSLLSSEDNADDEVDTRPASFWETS

Row | Compound | IC50 [nM]
1 | O=C1OCCCN1c1cccc(Cn2nc(-c3cc(F)cc(F)c3)ccc2=O)c1 [A6, 3-{3-[3-(3,5-difluorophenyl)-6-oxo-6H-pyridazin-1-ylmethyl]phenyl}-1,3-oxazinan-2-one] | 1 to 1000
2 | Cc1ccc(=O)n(-c2cccc(Cn3nc(-c4cc(F)cc(F)c4)ccc3=O)c2)n1 [A8, 1-{3-[3-(3,5-difluorophenyl)-6-oxo-6H-pyridazin-1-yl-methyl]phenyl}-3-methyl-6H-pyridazin-6-one] | 1 to 1000
3 | Cc1cnc(-c2cccc(Cn3nc(-c4cc(F)c(F)c(F)c4)ccc3=O)c2)nc1 [A1, 2-[3-(5-methylpyrimidin-2-yl)benzyl]-6-(3,4,5-trifluorophenyl)-2H-pyridazin-3-one] | 1 to 1000

Test system: TPR-Met/NIH3T3 cells
Assay: In-vivo tests: tumour volume, TPR-Met/NIH3T3 cells injected subcutaneously in Balb/C mice
Conditions: female Balb/C mice, s.c. TPR-Met/NIH3T3 tumour, 200 mg/kg daily by gastric tube, 9 days
Protocol: They were acclimatised to our keeping conditions for 7 days. Each mouse was subsequently injected subcutaneously in the pelvic area with 4 million TPR-Met/NIH3T3 cells in 100 μl of PBS (without Ca++ and Mg++).

Row | Compound | antitumoural action (tumour volume)
4 | CN1CCN(c2cnc(-c3cccc(Cn4nc(-c5cc(F)cc(F)c5)ccc4=O)c3)nc2)CC1 [A18, 6-(3,5-difluorophenyl)-2-{3-[5-(4-methylpiperazin-1-yl)pyrimidin-2-yl]-benzyl}-2H-pyridazin-3-one] | significant antitumoural action

Molecular target: T1, Met kinase
Assay: Met kinase inhibition, cell assay
Assay type: cell-based
Conditions: not given
Target sequence in this assay (P08581 25-1390): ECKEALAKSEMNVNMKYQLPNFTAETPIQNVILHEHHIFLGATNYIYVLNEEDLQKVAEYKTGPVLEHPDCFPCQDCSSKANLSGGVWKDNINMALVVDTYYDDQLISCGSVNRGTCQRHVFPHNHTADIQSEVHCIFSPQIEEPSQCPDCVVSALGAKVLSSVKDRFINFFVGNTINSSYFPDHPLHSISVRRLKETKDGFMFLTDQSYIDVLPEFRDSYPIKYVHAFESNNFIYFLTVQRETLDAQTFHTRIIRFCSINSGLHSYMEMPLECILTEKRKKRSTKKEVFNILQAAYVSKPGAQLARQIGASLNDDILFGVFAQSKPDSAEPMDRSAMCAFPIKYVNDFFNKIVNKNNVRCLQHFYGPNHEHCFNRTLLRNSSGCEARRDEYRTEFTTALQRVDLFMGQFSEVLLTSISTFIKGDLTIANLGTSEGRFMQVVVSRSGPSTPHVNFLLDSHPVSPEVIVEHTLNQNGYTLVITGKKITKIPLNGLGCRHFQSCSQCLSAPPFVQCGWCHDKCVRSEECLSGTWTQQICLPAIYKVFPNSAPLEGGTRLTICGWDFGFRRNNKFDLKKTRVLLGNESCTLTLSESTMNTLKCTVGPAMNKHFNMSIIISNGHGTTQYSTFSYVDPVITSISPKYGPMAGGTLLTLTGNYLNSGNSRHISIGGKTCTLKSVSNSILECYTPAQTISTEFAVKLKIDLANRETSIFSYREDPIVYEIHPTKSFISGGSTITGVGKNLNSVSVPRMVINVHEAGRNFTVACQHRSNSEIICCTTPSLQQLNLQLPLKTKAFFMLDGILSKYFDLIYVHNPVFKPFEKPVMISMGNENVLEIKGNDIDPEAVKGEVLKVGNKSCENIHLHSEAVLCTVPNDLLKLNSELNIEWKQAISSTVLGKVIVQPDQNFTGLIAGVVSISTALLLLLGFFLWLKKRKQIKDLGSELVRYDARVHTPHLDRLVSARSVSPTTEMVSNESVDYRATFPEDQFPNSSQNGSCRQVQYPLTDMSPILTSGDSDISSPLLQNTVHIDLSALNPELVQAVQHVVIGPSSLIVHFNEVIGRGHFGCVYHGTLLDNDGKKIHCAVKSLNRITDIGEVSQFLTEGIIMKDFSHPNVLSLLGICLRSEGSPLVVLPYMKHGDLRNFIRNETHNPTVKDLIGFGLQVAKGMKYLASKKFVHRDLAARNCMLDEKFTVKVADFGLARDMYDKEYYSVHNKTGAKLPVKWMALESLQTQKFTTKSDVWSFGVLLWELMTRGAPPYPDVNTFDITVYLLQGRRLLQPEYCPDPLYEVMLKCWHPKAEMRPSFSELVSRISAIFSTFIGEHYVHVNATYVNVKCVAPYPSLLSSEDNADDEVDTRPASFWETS

Row | Compound | IC50 [nM]
5 | CN1CCN(c2cnc(-c3cccc(Cn4nc(-c5cc(F)c(F)c(F)c5)ccc4=O)c3)nc2)CC1 [A20, 2-{3-[5-(4-methylpiperazin-1-yl)pyrimidin-2-yl]benzyl}-6-(3,4,5-trifluorophenyl)-2H-pyridazin-3-one] | 1 to 1000
6 | Nc1cnc(-c2cccc(Cn3nc(-c4cc(F)cc(F)c4)ccc3=O)c2)nc1 [A17, 2-[3-(5-aminopyrimidin-2-yl)benzyl]-6-(3,5-difluorophenyl)-2H-pyridazin-3-one] | 1 to 1000
7 | O=c1ccc(-c2cc(F)cc(F)c2)nn1Cc1cccc(-c2ncc(-c3cnn(C4CCNCC4)c3)cn2)c1 [A63] | 1 to 1000
8 | CN1CCC(COc2cnc(-c3cccc(Cn4nc(-c5cnn(C)c5)ccc4=O)c3)nc2)CC1 [A237, 2-{3-[5-(1-methylpiperidin-4-ylmethoxy)pyrimidin-2-yl]-benzyl}-6-(1-methyl-1H-pyrazol-4-yl)-2H-pyridazin-3-one] | 1 to 1000
9 | CN1CCN(Cc2cnc(-c3cccc(Cn4nc(-c5cc(F)cc(F)c5)ccc4=O)c3)nc2)CC1 [A14, 6-(3,5-difluorophenyl)-2-{3-[5-(4-methylpiperazin-1-yl-methyl)pyrimidin-2-yl]benzyl}-2H-pyridazin-3-one] | 1 to 1000
10 | CN1CCC(Oc2cnc(-c3cccc(Cn4nc(-c5cc(F)cc(F)c5)ccc4=O)c3)nc2)CC1 [A23, 6-(3,5-difluorophenyl)-2-{3-[5-(1-methylpiperidin-4-yloxy)pyrimidin-2-yl]benzyl}-2H-pyridazin-3-one] | 1 to 1000
11 | Cc1cnc(-c2cccc(Cn3nc(-c4ccc5nsnc5c4)ccc3=O)c2)nc1 [A79] | 1 to 1000
12 | CN(C)CCCCNC(=O)c1cnc(-c2cccc(Cn3nc(-c4cc(F)c(F)c(F)c4)ccc3=O)c2)nc1 [A35] | 1 to 1000
13 | CN1CCN(CCOc2cnc(-c3cccc(Cn4nc(-c5cc(F)cc(F)c5)ccc4=O)c3)nc2)CC1 [A57] | 1 to 1000
14 | CN1CCN(c2cnc(-c3cccc(Cn4nc(-c5cccc(C#N)c5)ccc4=O)c3)nc2)CC1 [A287, 3-(1-{3-[5-(4-methylpiperazin-1-yl)pyrimidin-2-yl]benzyl}-6-oxo-1,6-dihydropyridazin-3-yl)benzonitrile] | 1 to 1000
15 | O=c1ccc(-c2cc(F)cc(F)c2)nn1Cc1cccc(-c2ncc(N3CCNCC3)cn2)c1 [A19, 6-(3,5-difluorophenyl)-2-[3-(5-piperazin-1-ylpyrimidin-2-yl)benzyl]-2H-pyridazin-3-one] | 1 to 1000
16 | N#Cc1cccc(-c2ccc(=O)n(Cc3cccc(-c4ncc(-c5cnn(CCN6CCCC6)c5)cn4)c3)n2)c1 [A168, 3-[6-oxo-1-(3-{5-[1-(2-pyrrolidin-1-ylethyl)-1H-pyrazol-4-yl]pyrimidin-2-yl}benzyl)-1,6-dihydropyridazin-3-yl]-benzonitrile] | 1 to 1000
17 | CN1CCC(Oc2cnc(-c3cccc(Cn4nc(-c5cnn(C)c5)ccc4=O)c3)nc2)CC1 [A226, 2-{3-[5-(1-methylpiperidin-4-yloxy)pyrimidin-2-yl]-benzyl}-6-(1-methyl-1H-pyrazol-4-yl)-2H-pyridazin-3-one] | 1 to 1000
18 | CN(C)CCOc1cnc(-c2cccc(Cn3nc(-c4cc(F)cc(F)c4)ccc3=O)c2)nc1 [A64, 2-{3-[5-(2-dimethylaminoethoxy)pyrimidin-2-yl]benzyl}-6-(3,5-difluorophenyl)-2H-pyridazin-3-one] | 1 to 1000
19 | CN1CCC(COc2cnc(-c3cccc(Cn4nc(-c5cc(F)cc(F)c5)ccc4=O)c3)nc2)CC1 [A66] | 1 to 1000
20 | N#Cc1cccc(-c2ccc(=O)n(Cc3cccc(-c4ncc(N5CCNCC5)cn4)c3)n2)c1 [A288, 3-{6-oxo-1-[3-(5-piperazin-1-ylpyrimidin-2-yl)benzyl]-1,6-dihydropyridazin-3-yl}benzonitrile] | 1 to 1000
21 | O=c1ccc(-c2cc(F)cc(F)c2)nn1Cc1cccc(-c2nccc(N3CCNCC3)n2)c1 [A13, 6-(3,5-difluorophenyl)-2-[3-(4-piperazin-1-ylpyrimidin-2-yl)benzyl]-2H-pyridazin-3-one] | 1000 to 10000
22 | O=c1ccc(-c2cc(F)cc(F)c2)nn1Cc1cccc(-c2ncc(OC3CCNCC3)cn2)c1 [A102, 6-(3,5-difluorophenyl)-2-{3-[5-(piperidin-4-yloxy)pyrimidin-2-yl]benzyl}-2H-pyridazin-3-one] | 1 to 1000
23 | CN(C)CCCOc1cnc(-c2cccc(Cn3nc(-c4cnn(C)c4)ccc3=O)c2)nc1 [A209, 2-{3-[5-(3-dimethylaminopropoxy)pyrimidin-2-yl]-benzyl}-6-(1-methyl-1H-pyrazol-4-yl)-2H-pyridazin-3-one] | 1 to 1000
24 | Cc1cnc(-c2cccc(Cn3nc(-c4cc(F)c(F)c(F)c4)ccc3=O)c2)nc1 [A1, 2-[3-(5-methylpyrimidin-2-yl)benzyl]-6-(3,4,5-trifluorophenyl)-2H-pyridazin-3-one] | 1 to 1000
25 | CN1CCN(c2cnc(-c3cccc(Cn4nc(-c5cc(F)cc(F)c5)ccc4=O)c3)nc2)CC1 [A18, 6-(3,5-difluorophenyl)-2-{3-[5-(4-methylpiperazin-1-yl)pyrimidin-2-yl]-benzyl}-2H-pyridazin-3-one] | 1 to 1000
26 | CN(C)C=Nc1cnc(-c2cccc(Cn3nc(-c4cc(F)cc(F)c4)ccc3=O)c2)nc1 [A16, N′-(2-{3-[3-(3,5-difluorophenyl)-6-oxo-6H-pyridazin-1-ylmethyl]phenyl}-pyrimidin-5-yl)-N,N-dimethylformamidine] | 1 to 1000
27 | Cn1cc(-c2cnc(-c3cccc(Cn4nc(-c5cc(F)cc(F)c5)ccc4=O)c3)nc2)cn1 [A26, 6-(3,5-difluorophenyl)-2-{3-[5-(1-methyl-1H-pyrazol-4-yl)pyrimidin-2-yl]benzyl}-2H-pyridazin-3-one] | 1 to 1000
28 | Cc1cnc(-c2cccc(Cn3nc(-c4cccc(C#N)c4)ccc3=O)c2)nc1 [A15, 3-{1-[3-(5-methylpyrimidin-2-yl)benzyl]-6-oxo-1,6-dihydropyridazin-3-yl}benzonitrile] | 1 to 1000
29 | O=c1ccc(-c2cc(F)cc(F)c2)nn1Cc1cccc(-c2ncc(Br)cn2)c1 [A25, 2-[3-(5-bromopyrimidin-2-yl)benzyl]-6-(3,5-difluorophenyl)-2H-pyridazin-3-one] | 1 to 1000
30 | Cn1cc(-c2ccc(=O)n(Cc3cccc(-c4ncc(-c5cnn(CCN6CCCC6)c5)cn4)c3)n2)cn1 [A169] | 1 to 1000
